This is an account of results in PubChem BioAssay (NCI).

Some test systems named below: MOLT-4 leukemia; HL-60(TB) leukemia; OVCAR-3 ovarian; LOX IMVI melanoma; A549 NSCLC; SF-295 CNS; RXF 393 renal; NCI-H522 lung; NCI-H23 lung.
What all share (assay): DTP human tumour cell line panel, 48 h

SMILES strings stand for the structures.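 Cells were grown in 96-well plates and exposed to each compound for 48 hours at five concentrations; endpoints were interpolated linearly between bracketing concentrations, or set to the highest concentration if not reached. GI50 is the concentration that inhibits growth by half. TGI marks complete inhibition of growth.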

For orientation: TGI means the concentration at which net growth stops. Low values mean greater sensitivity of the cells, high ones lower sensitivity of the cells. Take `CC1CCC(C(C)(C)c2ccccc2)C(=O)C1` (centres undefined): the TGI in the assay with MOLT-4 leukemia, in the assay on HL-60(TB) leukemia, in the assay on OVCAR-3 ovarian, in the assay with LOX IMVI melanoma, in the assay with A549 NSCLC and in the assay with SF-295 CNS was above 100 µM in each case.
In general, GI50 refers to the concentration that inhibits growth by half. Turning to `Cc1ccc2[c](c1)[Sn]([c]1ccccc1)([c]1ccccc1)[c]1cc(C)ccc1N2C`, the GI50 with RXF 393 renal is 11.3 µM; in the assay with OVCAR-3 ovarian, 37.9 µM; in the assay with NCI-H522 lung, 21.8 µM; in the assay on LOX IMVI melanoma it was 13.2 µM; in the assay on A549 NSCLC, above 100 µM; in the assay on SF-295 CNS, above 100 µM. The GI50 in the assay with NCI-H23 lung was 41 µM. Besides, the TGI in the assay on RXF 393 renal was 31.8 µM; in the assay with OVCAR-3 ovarian it was above 100 µM; with NCI-H522 lung it was above 100 µM; in the assay with LOX IMVI melanoma, 29.6 µM; in the assay with A549 NSCLC it was above 100 µM; with SF-295 CNS, above 100 µM. The TGI in the assay with NCI-H23 lung is above 100 µM.
Consider `NCCN.O=C([O-])[O-].O=C([O-])[O-].[Co+3].[K+]`, for which the GI50 in the assay with MOLT-4 leukemia, in the assay with HL-60(TB) leukemia, in the assay with OVCAR-3 ovarian, in the assay with NCI-H522 lung, with LOX IMVI melanoma and with A549 NSCLC was above 100 µM in each case. The GI50 with SF-295 CNS and in the assay on NCI-H23 lung was above 100 µM throughout. Also, the TGI with MOLT-4 leukemia, in the assay with HL-60(TB) leukemia, in the assay on OVCAR-3 ovarian, with NCI-H522 lung, in the assay with LOX IMVI melanoma and in the assay on A549 NSCLC was above 100 µM throughout. Also, the TGI with SF-295 CNS and in the assay on NCI-H23 lung was above 100 µM each time.
Take `CCCCCCCCCCCCCCCCCCC1=C(O)C(=O)C=C(OC)C1=O`: the TGI in the assay with RXF 393 renal was above 100 µM; in the assay with MOLT-4 leukemia it was above 100 µM; in the assay with HL-60(TB) leukemia, 80.8 µM; with OVCAR-3 ovarian, above 100 µM; with NCI-H522 lung, 82.2 µM; with A549 NSCLC, above 100 µM. In addition, the TGI with SF-295 CNS and in the assay on NCI-H23 lung was above 100 µM in each case.
On to `COc1cc2c(cc1OC)C1Cc3cc(OC)c(OC)cc3N1CC2` (centres undefined), for which the TGI is above 100 µM in the assay on MOLT-4 leukemia; 53.2 µM in the assay on HL-60(TB) leukemia; above 100 µM with OVCAR-3 ovarian; 35 µM in the assay with NCI-H522 lung; 79.9 µM in the assay with A549 NSCLC; above 100 µM with SF-295 CNS. In the assay on NCI-H23 lung, this compound registered a TGI above 100 µM.
On to `COC(=O)c1c[nH]cc1CCCCc1c[nH]cc1C(=O)OC`, for which the TGI in the assay with RXF 393 renal, with MOLT-4 leukemia, in the assay on HL-60(TB) leukemia, in the assay on OVCAR-3 ovarian, with NCI-H522 lung and in the assay on LOX IMVI melanoma was above 100 µM each time. The TGI with A549 NSCLC, in the assay with SF-295 CNS and in the assay with NCI-H23 lung was above 100 µM each time.
On to `CCOc1ccc(N=Cc2c3ccccc3nc3ccccc23)cc1`, for which the TGI was above 100 µM in the assay with RXF 393 renal; above 100 µM with MOLT-4 leukemia; 77.2 µM in the assay on HL-60(TB) leukemia; above 100 µM in the assay on OVCAR-3 ovarian; above 100 µM in the assay on NCI-H522 lung; above 100 µM with LOX IMVI melanoma. Moreover, the TGI in the assay with A549 NSCLC, in the assay with SF-295 CNS and in the assay with NCI-H23 lung was above 100 µM throughout.
For `O=C1CC2CCN(C(=O)c3ccccc3)CC2CCN1` (centres undefined), the TGI in the assay with RXF 393 renal, in the assay with MOLT-4 leukemia, in the assay on HL-60(TB) leukemia, in the assay with OVCAR-3 ovarian, with LOX IMVI melanoma and in the assay on A549 NSCLC was above 100 µM each time. Besides, the TGI in the assay with SF-295 CNS and in the assay on NCI-H23 lung was above 100 µM in each case.
`CCC[CH2][Sn]1([CH2]CCC)[O]CC(COc2c(Cl)cc(Cl)cc2Cl)[O]1` (centres undefined): the GI50 in the assay with RXF 393 renal was 1.27 µM; with OVCAR-3 ovarian, 1.65 µM; with A549 NSCLC, 5.15 µM; with SF-295 CNS, 1.9 µM; in the assay on NCI-H23 lung it was 1.11 µM. The TGI in the assay on RXF 393 renal came out at 2.73 µM; in the assay on HL-60(TB) leukemia it was 0.673 µM; in the assay with OVCAR-3 ovarian, 3.03 µM; with A549 NSCLC, 17.7 µM; in the assay with SF-295 CNS, 3.37 µM; with NCI-H23 lung, 2.69 µM.
Take `CCOC(=O)C1=C(Nc2ccc(Br)cc2)OCC1=O`: the TGI is above 100 µM in the assay on RXF 393 renal; above 100 µM in the assay on MOLT-4 leukemia; 33.9 µM with HL-60(TB) leukemia; above 100 µM in the assay on OVCAR-3 ovarian; above 100 µM in the assay with NCI-H522 lung; above 100 µM in the assay on A549 NSCLC. The TGI with SF-295 CNS and in the assay with NCI-H23 lung was above 100 µM each time.
`Cc1ccc(C)c(N2C(=O)C(=O)C(c3nc4ccccc4o3)/C(=N/N)C2=O)c1` (centres undefined): the TGI in the assay with RXF 393 renal, in the assay on MOLT-4 leukemia, in the assay with HL-60(TB) leukemia, with OVCAR-3 ovarian, with NCI-H522 lung and in the assay with A549 NSCLC was above 100 µM in each case. In addition, the total growth inhibition concentration (TGI) in the assay on SF-295 CNS and with NCI-H23 lung was above 100 µM in each case.
With `C[P+](C)(C)c1ccccc1`, the TGI in the assay on RXF 393 renal, in the assay with MOLT-4 leukemia, in the assay with HL-60(TB) leukemia, in the assay with OVCAR-3 ovarian, in the assay with LOX IMVI melanoma and with A549 NSCLC was above 100 µM in each case. The TGI with SF-295 CNS and in the assay with NCI-H23 lung was above 100 µM in each case.
Turning to `Cc1ccc(C)c(N2C(=O)C(=O)C(c3nc4ccccc4o3)/C(=N\NC(=O)c3ccccc3O)C2=O)c1` (centres undefined), the TGI with MOLT-4 leukemia was 52.6 µM; in the assay on HL-60(TB) leukemia it was 31.2 µM; in the assay on OVCAR-3 ovarian, 63 µM; with NCI-H522 lung, 54 µM; in the assay with LOX IMVI melanoma, above 100 µM; with A549 NSCLC, above 100 µM. Further, the figures for the TGI in the assay on SF-295 CNS and in the assay with NCI-H23 lung were above 100 µM and 28.7 µM, respectively.
Turning to `O=C1c2ccc3c4ccccc4n(-c4ccccc4)c3c2C(=O)N1c1ccc(Cl)cc1`, the TGI with RXF 393 renal, in the assay with MOLT-4 leukemia, with HL-60(TB) leukemia, in the assay with OVCAR-3 ovarian, in the assay with NCI-H522 lung and in the assay with LOX IMVI melanoma was above 100 µM each time. In addition, the TGI is above 100 µM in the assay with A549 NSCLC, above 100 µM in the assay on SF-295 CNS and 24.4 µM in the assay with NCI-H23 lung.
